Measured values as given in patent publication US20190136191A1, “Methods of Producing Specialized Cardio-Like Cells from Stem Cells” (Emory University, priority 2016, published 2019).

Key:
Human ESCs (H9) [1] = assay: Mesoderm formation during cardiac differentiation of hESCs (brachyury (T)+ cells); format: cell-based
From the text: (§1) Human ESCs (H9) were differentiated to cardiac lineage by treatment with Activin A, BMP4 and bFGF (ABF, control group) for two days (day 1-2) Mesoderm formation was identified by brachyury (T)+ cells, and the ensuing pan-cardiac myocyte lineage was marked by cTnT+ cells. In control, this process was highly efficient, reaching 75% and 82%, respectively. […] In contrast, late (day 6-9) activation of RA (Late-RA) led to >90% cTnT+ population. […] Furthermore, the Late-RA cardiomyocytes expressed higher transcript and protein levels of the first heart field (FHF) markers, NKX2.5, TBX5 and HCN4.

Human ESCs (H9) [2] = assay: Pan-cardiac myocyte lineage formation from hESCs (cTnT+ cells); format: cell-based
From the text: as §1

hESCs = assay: Differentiation protocols of hESCs to cardio-like cell subtypes (AFB, AFB+RA, Ri+AFB+RA); format: cell-based, human
Protocol: To create the cardio-like cells from hESCs, at the early stage (day 0-3), hESCs were treated with ActivinA, bFGF and BMP4 to induce mesoderm and cardiac mesoderm cells generation. […] Wnt inhibitor promoted cardiac progenitor cells into cardio-like cells during day 5-11.
To create atrial-like cells from hESCs, at the early stage (day 0-3), hESCs were treated with ActivinA, bFGF and BMP4 to induce mesoderm and cardiac mesoderm cells generation. […] Wnt inhibitor promoted differentiation of cardiac progenitor cells into cardio-like cells during day 5-11.
To create first heart field (FHF) derived left ventricular-like cells from hESCs, at the early stage (day 0-3), hESCs were treated with ActivinA, bFGF, BMP4 and additional short time (day 0-1) treatment of BMS4.93(Ri) to induce mesoderm and cardiac mesoderm cells generation. […] Wnt inhibitor promoted cardiac progenitor cells into cardiomyocytes during day 5-11.

Human ESCs (H9) [3] = assay: Chamber and heart field marker expression in hESC-derived cardiomyocytes; format: cell-based
From the text: IRX4 and HRT2 are ventricular marker. CoupTFII is an atrial marker. NKX2.5, TBX5, HCN4 are markers of the first heart field, which becomes the left ventricular and atrial cardiac myocytes.
Is11, Mef2c, Fgf8, and Fgf10 are markers of the second heart field, which become right ventricular cardiac myocytes.
as §1
Reported are specific and robust derivation of the left ventricular-like cells by activating RA signaling during the late stage of hESC differentiation.

[4] = Late-RA cardiomyocytes compared to control
[5] = early inhibition of RA signaling

Molecule: CC(C=CC1=C(C)CCCC1(C)C)=CC=CC(C)=CC(=O)O [RA, 3,7-dimethyl-9-(2,6,6-trimethylcyclohexen-1-yl)nona-2,4,6,8-tetraenoic acid]
- Generation of mesoderm lineage (Human ESCs (H9) [1]; early activation of RA): failed to generate mesoderm lineage
- cTnT+ population (Human ESCs (H9) [2]; late (day 6-9) activation of RA (Late-RA)): > 90%
- Cell subtype specified (hESCs; AFB+RA protocol, RA during day 5-8, no early RA inhibitor): specified atria-like subtypes
- Cell subtype specified (hESCs; Ri+AFB+RA protocol, RA during day 5-8 after Ri day 0-1): specified first heart field (FHF) derived left ventricular-like cell subtypes
- First heart field marker HCN4 transcript and protein levels (Human ESCs (H9) [3]; Late-RA cardiomyocytes): higher
- First heart field marker NKX2.5 transcript and protein levels (Human ESCs (H9) [3]; Late-RA cardiomyocytes): higher
- First heart field marker TBX5 transcript and protein levels (Human ESCs (H9) [3]; Late-RA cardiomyocytes): higher
- Atrial marker CoupTFII expression (Human ESCs (H9) [3]; [4]): down-regulated
- Second heart field marker FGF8 expression (Human ESCs (H9) [3]; [4]): downregulated
- Second heart field marker FGF10 expression (Human ESCs (H9) [3]; [4]): downregulated
- Second heart field marker ISL1 expression (Human ESCs (H9) [3]; [4]): downregulated
- Ventricular marker HRT2 expression (Human ESCs (H9) [3]; [4]): up-regulated
- Ventricular marker IRX4 expression (Human ESCs (H9) [3]; [4]): up-regulated

Molecule: CC1(C)CC=C(C#Cc2ccccc2)c2cc(/C=C/c3ccc(C(=O)O)cc3)ccc21 [BMS-189493, (E)-4-(2-(5,5-dimethyl-8-(phenylethynyl)-5,6-dihydronaphthalen-2-yl)vinyl)benzoic acid]
- Mesoderm induction (Human ESCs (H9) [1]; [5]): increased mesoderm induction
- Mesodermal cells that failed to become cardiac myocytes (Human ESCs (H9) [2]; [5]): 86%

B1: Noggin: secreted protein that binds and inactivates TGF-beta superfamily signaling proteins (protein, UniProt Q13253 28-232, looked up)
Noggin: QHYLHIRPAPSDNLPLVDLIEHPDPIFDPKEKDLNETLLRSLLGGHYDPGFMATSPPEDRPGGGGGAAGGAEDLAELDQLLRQRPSGAMPSEIKGLEFSEGLAQGKKQRLSKKLRRKLQMWLWSQTFCPVLYAWNDLGSRFWPRYVKVGSCFSKRSCSVPEGMVCKPSKSVHLTVLRWRCQRRGGQRCGWIPIQYPIISECKCSC
- Effect on cardiac lineage cells (hESCs; Noggin treatment during day 3-5): expanded more cardiac lineage cells
